Source: paper PMC3681751, “Identification of a Novel Antimicrobial Peptide from Human Hepatitis B Virus Core Protein Arginine-Rich Domain (ARD)” (PLoS Pathogens, 2013)
Converted amounts (≈) assume the structure as drawn. Like-named read-outs stand apart in the source and are kept apart here. Positions of bridges follow the written chain, without caps; N, C: chain ends. Non-standard residues stand in square brackets, D forms with d. Residues, ends and D or L forms follow the SMILES beside them. No end group written: not given here. *: point of attachment. X1 = CC[C@H](C)CCCCC(=O)*; Dab = NCC[C@H](N)C(=O)O

What was measured:
[1] = test system: P. aeruginosa NHRI-01; type: cell-based, Pseudomonas aeruginosa; settings: Colistin resistant strain; colistin susceptibility by broth-dilution (CLSI)
Text: (§1) Clinical isolates of Pseudomonas aeruginosa (NHRI-01, NHRI-02 and NHRI-04) were obtained through the program of Taiwan Surveillance of Antimicrobial Resistance (TSAR), National Health Research Institutes (NHRI), Taiwan. Acinetobacter baumannii (ATCC 17989, ATCC 17978 CR, ATCC19606, ATCC 19606 CR, TCGH 45530 and TCGH 46709) were obtained from Tzu-Chi Buddhist General Hospital (TCGH) in Taiwan, and clinical isolates (TCGH 45530 and TCGH 46709) were identified using the Vitek system (Biomerieux Vitek, Inc., Hazelwood, MO, USA). A. baumannii is defined as multidrug-resistant, when the organism is resistant to piperacillin, piperacillin-tazobactam, ampicillin/sulbactam, imipenem, ceftazidime, gentamicin, amikacin, tetracycline, chloramphenicol, ciprofloxacin, and cotrimoxazole. Susceptibility to colistin was determined using the broth-dilution method, in accordance with the guidelines of the Clinical and Laboratory Standards Institute (CLSI).
(§2) All peptides were purchased from Yao-Hong Biotechnology Inc. (Taipei, Taiwan). Vendors provided data of peptide characterizations, including HPLC and Mass (data not shown). Antimicrobial activity was determined as described with some modifications as detailed below. Bacteria were grown overnight in Mueller–Hinton broth (Difco) at 37°C, and during the mid-logarithmic phase, bacteria were diluted to 10^6 CFU (colony formation unit)/ml in phosphate buffer (10 mM sodium phosphate and 50 mM sodium chloride, pH 7.2). Peptides were serially diluted in the same buffer. Fifty microliter (µl) of bacteria was mixed with fifty µl of peptides at varying concentrations followed by incubation at 37°C for 3 hours without shaking. At the end of incubation, bacteria were placed on Mueller-Hinton broth agar plates, and allowed growth at 37°C overnight for measurement of minimal bactericidal concentration (MBC). […] All peptides were tested in triplicate.

[2] = test system: P. aeruginosa NHRI-04; type: cell-based, Pseudomonas aeruginosa; settings: Colistin sensitive strain; colistin susceptibility by broth-dilution (CLSI)
Text: as §1, §2

[3] = test system: P. aeruginosa NHRI-02; type: cell-based, Pseudomonas aeruginosa; settings: Colistin sensitive strain; colistin susceptibility by broth-dilution (CLSI)
Text: as §1, §2

[4] = test system: A. baumannii TCGH45530; type: cell-based, Acinetobacter baumannii; settings: Clinical isolate, multidrug resistance; colistin susceptibility by broth-dilution (CLSI)
Text: as §1, §2

[5] = test system: A. baumannii ATCC17978; type: cell-based, Acinetobacter baumannii; settings: Reference strain; colistin susceptibility by broth-dilution (CLSI)
Text: as §1, §2

[6] = test system: A. baumannii TCGH46709; type: cell-based, Acinetobacter baumannii; settings: Clinical isolate, multidrug resistance; colistin susceptibility by broth-dilution (CLSI)
Text: as §1, §2

[7] = test system: A. baumannii ATCC19606; type: cell-based, Acinetobacter baumannii; settings: Reference strain; colistin susceptibility by broth-dilution (CLSI)
Text: as §1, §2

[8] = test system: A. baumannii ATCC17978 CR; type: cell-based, Acinetobacter baumannii; settings: Induced Colistin resistant strain; colistin susceptibility by broth-dilution (CLSI)
Text: as §1, §2

[9] = test system: A. baumannii ATCC19606 CR; type: cell-based, Acinetobacter baumannii; settings: Induced Colistin resistant strain; colistin susceptibility by broth-dilution (CLSI)
Text: as §1, §2

[10] = test system: HepG2 cells; test: Peptide uptake into mammalian cells; type: cell-based, human; settings: peptide added to the medium of HepG2 cells
Experimental: To set up CFSE cell proliferation assay, 293 cells (human kidney origin) and Vero cells (monkey kidney origin) were resuspended in PBS to a final concentration of 10^6 cells/ml, before incubation with 10 µM CFSE dye (CellTrace CFSE cell proliferation kit, Invitrogen) at 37°C for 10 min. To quench the staining, ice-old culture media were then added and incubated on ice for 5 min. Labeled cells were then pelleted and washed three times by fresh medium containing 10% FBS before seeding into six well plates at a density of 3.3×10^5cells/well. After 20 h, the medium was removed and incubated with fresh medium containing 5, 25 and 100 µM HBc 147-183 for one hour (FITC-labeled ARD peptide had been largely internalized in 10 minutes after the addition of ARD peptides to the medium of HepG2 cells). Forty-eight hours later, cells were harvested and analyzed by flow cytometry (FACSCanto, BD Bioscience).

[11] = test system: E. coli (ATCC 25922); type: cell-based, Escherichia coli; settings: 3 h at 37°C in phosphate buffer pH 7.2; triplicate
Experimental: (§3) The antimicrobial activities of HBc ARD peptides were tested using a number of bacterial strains from ATCC, including Pseudomonas aeruginosa Migula strain (ATCC 27853, ampicillin-resistant), Pseudomonas aeruginosa Migula strain (ATCC 9027, ampicillin-resistant), Klebsiella pneumoniae strain (ATCC 17593), Escherichia coli strain (ATCC 25922), Staphylococcus aureus subsp. strain (ATCC 25923, methicillin-resistant), Staphylococcus aureus subsp. strain (ATCC 29213, methicillin-resistant), Staphylococcus aureus subsp. strain (ATCC 19636, methicillinresistant), and Candida albicans strain (ATCC 10231).
as §2

[12] = test system: P. aeruginosa; test: SYTOX Green uptake (membrane permeabilization); type: cell-based, Pseudomonas aeruginosa; settings: 0.5, 1 and 2 µM, dose-dependent; triplicates
Experimental: Briefly, bacteria (10^7 CFU) were prepared and mixed with 1 µM SYTOX Green (Invitrogen) for 15 minutes in the dark. […] Melittin (Sigma), the major toxin of bee venom, was used as a positive control to provide maximal permeabilization.

[13] = test system: K. pneumonia (ATCC 13884); type: cell-based, Klebsiella pneumoniae
[14] = test system: P. aeruginosa (ATCC 27853); type: cell-based, Pseudomonas aeruginosa
Experimental: as §3, §2

[15] = test system: P. aeruginosa (ATCC 9027); type: cell-based, Pseudomonas aeruginosa
Experimental: as §3, §2

[16] = ampicillin-resistant strain, 3 h at 37°C in phosphate buffer pH 7.2, triplicate

Compound `CC[C@H](C)CCCCC(=O)N[C@@H](CCN)C(=O)N[C@H](C(=O)N[C@@H](CCN)C(=O)N[C@H]1CCNC(=O)[C@H]([C@@H](C)O)NC(=O)[C@H](CCN)NC(=O)[C@H](CCN)NC(=O)[C@H](CC(C)C)NC(=O)[C@@H](Cc2ccccc2)NC(=O)[C@H](CCN)NC1=O)[C@@H](C)O` [Polymyxin B] (X1-[Dab]T[Dab][Dab][Dab][dF]L[Dab][Dab]T; lactam 4-C (inferred); N-terminus assumed) has an MBC [1] of 4 µg/mL (≈ 3.32 µM), an MBC [2] of 2 µg/mL (≈ 1.66 µM) and an MBC [3] of 2 µg/mL (≈ 1.66 µM). For the same compound, the MBC [4] was 8 µg/mL (≈ 6.65 µM), the MBC [5] was 4 µg/mL (≈ 3.32 µM) and the MBC [6] was greater than 8 µg/mL. For the same compound, the MBC [7] was 2 µg/mL (≈ 1.66 µM), the MBC [8] was 8 µg/mL (≈ 6.65 µM) and the MBC [9] was greater than 8 µg/mL.
“FITC-labeled HBc147-183: FITC-labeled HBc147-183 used for localization by confocal microscopy (TVVRRRGRSPRRRTPSPRRRRSQSPRRRRSQSRESQC; also: FITC label, place not given here; UniProt P03147 147-183, looked up, fragment)” was tested, and the “Time after which peptide was largely internalized” value [10] was 10 min.
`C[C@@H](O)[C@H](NC(=O)[C@H](CCCNC(=N)N)NC(=O)[C@H](CCCNC(=N)N)NC(=O)[C@H](CCCNC(=N)N)NC(=O)[C@@H]1CCCN1C(=O)[C@H](CO)NC(=O)[C@H](CCCNC(=N)N)NC(=O)CN)C(=O)N1CCC[C@H]1C(=O)N[C@@H](CO)C(=O)N1CCC[C@H]1C(=O)N[C@@H](CCCNC(=N)N)C(=O)N[C@@H](CCCNC(=N)N)C(=O)N[C@@H](CCCNC(=N)N)C(=O)N[C@@H](CCCNC(=N)N)C(=O)N[C@@H](CO)C(=O)N[C@@H](CCC(N)=O)C(=O)N[C@@H](CO)C(=O)N1CCC[C@H]1C(=O)N[C@@H](CCCNC(=N)N)C(=O)N[C@@H](CCCNC(=N)N)C(=O)N[C@@H](CCCNC(=N)N)C(=O)N[C@@H](CCCNC(=N)N)C(=O)N[C@@H](CO)C(=O)O` [HBc153-176] (H-GRSPRRRTPSPRRRRSQSPRRRRS-OH; N-terminus and C-terminus assumed) was tested, and the “Antimicrobial activity, MBC” value [11] was 48 µg/mL, the “Time to membrane permeabilization (SYTOX Green uptake)” value [12] was no more than 10 min and the “Antimicrobial activity, MBC” value ([13]; 3 h at 37°C in phosphate buffer pH 7.2, triplicate) was greater than 96 µg/mL. The “Antimicrobial activity, MBC” value ([13]; ATCC 13884, 3 h, pH 7.2) was greater than 32 µM, the “Antimicrobial activity, MBC” value ([14]; ATCC 27853, 3 h, pH 7.2) was 1 to 2 µM and the “Antimicrobial activity, MBC” value [14, 16] was 3 to 6 µg/mL. The “Antimicrobial activity, MBC” value ([15]; ATCC 9027, 3 h, pH 7.2) was 1 to 2 µM, the “Antimicrobial activity, MBC” value [15, 16] was 3 to 6 µg/mL and the “MBC against P. aeruginosa” value ([15]; summary over the P. aeruginosa strains of Table 1 (ATCC 9027, ATCC 27853)) was “strong activity”.
Work on `CC[C@H](C)CCCCC(=O)N[C@@H](CCN)C(=O)N[C@H](C(=O)N[C@@H](CCN)C(=O)N[C@H]1CCNC(=O)[C@H]([C@@H](C)O)NC(=O)[C@H](CCN)NC(=O)[C@H](CCN)NC(=O)[C@H](CC(C)C)NC(=O)[C@@H](CC(C)C)NC(=O)[C@H](CCN)NC1=O)[C@@H](C)O` [Colistin] (X1-[Dab]T[Dab][Dab][Dab][dL]L[Dab][Dab]T; lactam 4-C (inferred); N-terminus assumed) yielded an MBC [1] greater than 8 µg/mL, an MBC [2] of 4 µg/mL (≈ 3.42 µM) and an MBC [3] of 4 µg/mL (≈ 3.42 µM). The MBC [4] was greater than 8 µg/mL, the MBC [5] was 4 µg/mL (≈ 3.42 µM) and the MBC [6] was greater than 8 µg/mL. For the same compound, the MBC [7] was 2 µg/mL (≈ 1.71 µM), the MBC [8] was greater than 8 µg/mL and the MBC [9] was 8 µg/mL (≈ 6.84 µM).
